Read-outs that look alike come from different tables or passages of the source.
Experiment: Ocular tissue concentrations (aqueous humor, vitreous humor, iris, retina, choroid, cornea) after topical ocular, subcutaneous and intravitreal administration
Type: in vivo, New Zealand White rabbits
Conditions: New Zealand White, rabbit; for concentration at 2 h / concentration at 4 h / concentration at 0.5 h / concentration at 1 h: subcutaneous, 5 mg/kg/dose, subcutaneous 5 mg/kg/dose; for concentration at 6 hr / concentration at 24 hr / concentration at 48 hr / concentration at 72 hr: other: intravitreal, 2.5 mg/eye
Procedure: To measure the concentration of Compound 1 in plasma and ocular tissues following topical ocular, subcutaneous, and intravitreal administration, New Zealand White rabbits were administered Compound 1, and plasma and ocular samples were collected at pre-determined time points. Compound 1 formulations were prepared fresh on each day of dosing.
Ocular tissue samples from both eyes of each animal were collected and weights were recorded. Plasma and ocular tissue sample concentrations of Compound 1 were determined by LC-MS/MS.
New Zealand White rabbits weighing 2.5 to 3.5 kg were used on this study. Rabbits were housed one per cage. Animals were not fasted and only healthy animals with no ocular illness were used. Two rabbits per group were sacrificed at each of four ocular tissue sampling time points for a total of eight rabbits per group.
Animals were anesthetized for ocular (topical) and intravitreal dosing following the 12IA7 IACUC protocol. Each rabbit received a bolus dose of test formulation either via topical ocular administration 3 times daily on Days 1 and 2 (at 0, 6, and 12 hours), and once on Day 3 (at 0 hours) into both eyes; via intravitreal administration into both eyes once on Day 1 (at 0 hours); or via subcutaneous administration 2 times daily on Days 1 and 2 (at 0 and 8 hours) and once daily on Day 3 (at 0 hours). Doses were given within an approximately 1 hour window each day where applicable.
On Day 1, for intravitreal administration, or on Day 3, for topical ocular and subcutaneous administration, at the appropriate ocular tissue collection time points, animals were euthanized and both eyes were enucleated immediately. Following enucleation, each eye was rinsed with phosphate-buffered saline. Ocular tissue samples from both eyes of each animal were collected at predetermined time points and weights were recorded. All the samples were frozen immediately on dry ice, and stored at −60° C. to −80° C. pending bioanalysis.
An LC-MS/MS method was developed for the determination of Compound 1 in rabbit aqueous tissues (plasma, aqueous and vitreous humor) and solid ocular tissue samples. A pre-study standard curve was analyzed to determine the specificity, range, and lower limit of quantitation of the method. Plasma and tissue homogenate study samples were extracted and analyzed. All the samples were treated identically to the standards.
One eight-point standard curve was used in each analytical batch. To be accepted, each batch must have had at least five of eight standards with accuracy within ±20% of nominal, except at the lower limit of quantification (LLOQ), where ±25% was acceptable.
Concentration versus time data is plotted in FIGS. 3-16. All data are expressed as ng/g of the free drug. Samples that were below the limit of quantitation (0.2 ng/mL) were not used in the calculation of averages.

[1] = choroid, TABLE 16: Choroid, free acid, Group 3, read-out: Choroid Average
[2] = cornea homogenate, Cornea homogenate, OD, sodium salt, intravitreal 2.5 mg/eye, Group 4, read-out: Cornea Conc. (ng/mL) OD
[3] = cornea homogenate, Cornea homogenate, OS, sodium salt, intravitreal 2.5 mg/eye, Group 4, read-out: Cornea Conc. (ng/mL) OS
[4] = cornea homogenate, Cornea homogenate, right eye, intravitreal 2.5 mg/eye (group 5), individual animals, read-out: Conc. (ng/mL) OD
[5] = cornea homogenate, Cornea homogenate, left eye, intravitreal 2.5 mg/eye (group 5), individual animals, read-out: Conc. (ng/mL) OS
[6] = cornea homogenate, Cornea homogenate, OD, free acid, Group 3, read-out: Cornea Conc. (ng/mL) OD
[7] = cornea homogenate, Cornea homogenate, OS, free acid, Group 3, read-out: Cornea Conc. (ng/mL) OS
[8] = cornea homogenate, Cornea homogenate, OS, sodium salt, Group 2, read-out: Cornea Conc. (ng/mL) OS
[9] = cornea homogenate, Cornea homogenate, OD, sodium salt, Group 2, read-out: Cornea Conc. (ng/mL) OD
[10] = cornea homogenate, TABLE 16: Cornea homogenate, OD, free acid, Group 3, read-out: Cornea Conc. (ng/mL) OD
[11] = cornea homogenate, TABLE 16: Cornea homogenate, OS, free acid, Group 3, read-out: Cornea Conc. (ng/mL) OS
[12] = cornea, Cornea, OD, sodium salt, intravitreal 2.5 mg/eye, Group 4, read-out: Cornea Conc. (ng/g) OD
[13] = cornea, Cornea, OS, sodium salt, intravitreal 2.5 mg/eye, Group 4, read-out: Cornea Conc. (ng/g) OS
[14] = cornea, Cornea, average, intravitreal 2.5 mg/eye (group 5), read-out: Avg.
[15] = cornea, Cornea, right eye, intravitreal 2.5 mg/eye (group 5), individual animals, read-out: Conc. (ng/g) OD
[16] = cornea, Cornea, sodium salt, intravitreal 2.5 mg/eye, Group 4, read-out: Cornea Avg.
[17] = cornea, Cornea, left eye, intravitreal 2.5 mg/eye (group 5), individual animals, read-out: Conc. (ng/g) OS
[18] = cornea, Cornea, OD, free acid, Group 3, read-out: Cornea Conc. (ng/g) OD
[19] = cornea, Cornea, OS, sodium salt, Group 2, read-out: Cornea Conc. (ng/g) OS
[20] = cornea, Cornea, free acid, Group 3, read-out: Cornea Average
[21] = cornea, Cornea, sodium salt, Group 2, read-out: Cornea Average
[22] = cornea, Cornea, OD, sodium salt, Group 2, read-out: Cornea Conc. (ng/g) OD
[23] = cornea, TABLE 16: Cornea, OD, free acid, Group 3, read-out: Cornea Conc. (ng/g) OD
[24] = cornea, TABLE 16: Cornea, free acid, Group 3, read-out: Cornea Average

Structure (SMILES): COC(=O)N[C@@H](Cc1ccccc1)C(=O)N[C@@H](Cc1ccc(NS(=O)(=O)O)cc1)c1csc(-c2cccs2)n1 [Compound 1]
- concentration at 2 h (choroid, TABLE 16: Choroid, OS, free acid, Group 3, read-out: Choroid Conc. (ng/g) OS): 53.2 ng/g
- concentration at 2 h [1]: 47.7 ng/g
- concentration at 4 h (choroid, TABLE 16: Choroid, OD, free acid, Group 3, read-out: Choroid Conc. (ng/g) OD): 53 ng/g
- concentration at 4 h [1]: 61 ng/g
- concentration at 6 hr [2]: 6300 ng/mL
- concentration at 6 hr [3]: 6940 ng/mL
- concentration at 6 hr [4]: 7910 ng/mL
- concentration at 24 hr [2]: 2180 ng/mL
- concentration at 24 hr [3]: 1560 ng/mL
- concentration at 24 hr [5]: 1190 ng/mL
- concentration at 24 hr [4]: 1520 ng/mL
- concentration at 48 hr [2]: 1050 ng/mL
- concentration at 48 hr [3]: 662 ng/mL
- concentration at 48 hr [5]: 293 ng/mL
- concentration at 48 hr [4]: 437 ng/mL
- concentration at 0.5 h [6]: 0.55 ng/mL
- concentration at 0.5 h [7]: 0.897 ng/mL
- concentration at 0.5 h [8]: 2.46 ng/mL
- concentration at 1 h [6]: 1.11 ng/mL
- concentration at 1 h [9]: 2.37 ng/mL
- concentration at 1 h [8]: 4.52 ng/mL
- concentration at 2 h [6]: 0.514 ng/mL
- concentration at 2 h [8]: 0.998 ng/mL
- concentration at 4 h [6]: 0.942 ng/mL
- concentration at 4 h [9]: 0.752 ng/mL
- concentration at 4 h [7]: 2.51 ng/mL
- concentration at 4 h [8]: 0.784 ng/mL
- concentration at 0.5 h [10]: 0.55 ng/mL
- concentration at 0.5 h [11]: 0.897 ng/mL
- concentration at 1 h [10]: 1.11 ng/mL
- concentration at 2 h [10]: 0.514 ng/mL
- concentration at 4 h [10]: 0.942 ng/mL
- concentration at 4 h [11]: 2.51 ng/mL
- concentration at 6 hr [12]: 69300 ng/g
- concentration at 6 hr [13]: 76300 ng/g
- concentration at 6 hr [14]: 54600 ng/g
- concentration at 6 hr [15]: 87000 ng/g
- concentration at 6 hr [16]: 71400 ng/g
- concentration at 24 hr [12]: 24000 ng/g
- concentration at 24 hr [13]: 17200 ng/g
- concentration at 24 hr [14]: 17300 ng/g
- concentration at 24 hr [17]: 13100 ng/g
- concentration at 24 hr [15]: 16700 ng/g
- concentration at 24 hr [16]: 23700 ng/g
- concentration at 48 hr [12]: 11600 ng/g
- concentration at 48 hr [13]: 7280 ng/g
- concentration at 48 hr [14]: 4630 ng/g
- concentration at 48 hr [17]: 3220 ng/g
- concentration at 48 hr [15]: 4810 ng/g
- concentration at 48 hr [16]: 7530 ng/g
- concentration at 72 hr [14]: 762 ng/g
- concentration at 72 hr [16]: 421 ng/g
- concentration at 0.5 h [18]: 6.05 ng/g
- concentration at 0.5 h (cornea, Cornea, OS, free acid, Group 3, read-out: Cornea Conc. (ng/g) OS): 9.87 ng/g
- concentration at 0.5 h [19]: 27.1 ng/g
- concentration at 0.5 h [20]: 7.96 ng/g
- concentration at 0.5 h [21]: 19.4 ng/g
- concentration at 1 h [18]: 12.2 ng/g
- concentration at 1 h [22]: 26.1 ng/g
- concentration at 1 h [19]: 25.3 ng/g
- concentration at 1 h [20]: 12.2 ng/g
- concentration at 1 h [21]: 31.1 ng/g
- concentration at 2 h [18]: 5.65 ng/g
- concentration at 2 h [22]: 11.7 ng/g
- concentration at 2 h [19]: 11 ng/g
- concentration at 2 h [20]: 5.65 ng/g
- concentration at 2 h [21]: 9.45 ng/g
- concentration at 4 h [18]: 10.4 ng/g
- concentration at 4 h [22]: 8.27 ng/g
- concentration at 4 h [19]: 8.62 ng/g
- concentration at 4 h [20]: 15.8 ng/g
- concentration at 4 h [21]: 10.1 ng/g
- concentration at 0.5 h [23]: 6.05 ng/g
- concentration at 0.5 h (cornea, TABLE 16: Cornea, OS, free acid, Group 3, read-out: Cornea Conc. (ng/g) OS): 9.87 ng/g
- concentration at 0.5 h [24]: 7.96 ng/g
- concentration at 1 h [23]: 12.2 ng/g
- concentration at 1 h [24]: 12.2 ng/g
- concentration at 2 h [23]: 5.65 ng/g
- concentration at 2 h [24]: 5.65 ng/g

Source: patent US11666558B2, “Methods of treating intraocular pressure with activators of Tie-2” (EyePoint Pharmaceuticals, Inc., priority 2015, dated 2023)
